Assay results published in patent US6355799B1, “Substituted benzene compounds, process for their preparation, and herbicidal and defoliant compositions containing them” (ISK Americas Incorporated, priority 1997, dated 2002).

Columns and labels:
Type in all cases: in vivo
[1] = test system: velvetleaf (Abutilon theophrasti, ABUTH); test: Post-emerge test, greenhouse herbicide activity screening; conditions: post-emerge, phytotoxicity rating 0-100 at 14 days after application
In short: (§1)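 Plants grown in 10 cm pots of sandy loam mix received acetone-dissolved compounds through a moving flat-fan nozzle. Doses ranged from 15 to 1000 g ai/ha. Pre-emerge pots were seeded one day earlier, post-emerge pots 8–21 days earlier. Fourteen days on, each pot was graded 0–100 for damage.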

[2] = test system: sicklepod (Cassia obtusifolia, CASOB); test: as above; conditions: post-emerge, phytotoxicity rating 0-100 at 14 days after application
In short: as §1

[3] = test system: lambsquarters (Chenopodium album, CHEAL); test: as above; conditions: post-emerge, phytotoxicity rating 0-100 at 14 days after application
In short: as §1

[4] = test system: large crabgrass (Digitaria sanguinalis, DIGSA); test: as above; conditions: post-emerge, phytotoxicity rating 0-100 at 14 days after application
In short: as §1

[5] = test system: johnsongrass (Sorghum halepense, SORHA); test: as above; conditions: post-emerge, phytotoxicity rating 0-100 at 14 days after application
In short: as §1

[6] = test system: redroot pigweed (Amaranthus retroflexus, AMARE); test: as above; conditions: post-emerge, phytotoxicity rating 0-100 at 14 days after application
In short: as §1

[7] = test system: barnyardgrass (Echinochloa crus-galli, ECHCG); test: as above; conditions: post-emerge, phytotoxicity rating 0-100 at 14 days after application
In short: as §1

[8] = test system: ivyleaf morningglory (Ipomoea hederacea, IPOHE); test: as above; conditions: post-emerge, phytotoxicity rating 0-100 at 14 days after application
In short: as §1

[9] = test system: green foxtail (Setaria viridis, SETVI); test: as above; conditions: post-emerge, phytotoxicity rating 0-100 at 14 days after application
In short: as §1

[10] = test system: redroot pigweed (Amaranthus retroflexus, AMARE); test: Pre-emerge test, greenhouse herbicide activity screening; conditions: pre-emerge, phytotoxicity rating 0-100 at 14 days after application
In short: (§2)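 Compounds in acetone were track-sprayed at 187 l/ha, 15–1000 g ai/ha, onto sandy loam pots. Pre-emerge seeds were sown one day before spraying, with surface watering afterwards. Post-emerge plants were at the 2–3 leaf stage and sprayed with 0.25% v/v non-ionic surfactant. Injury was rated 0–100 at 14 days.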

[11] = test system: field corn (Zea mays L., var. Dekalb 535, CORN); test: Post-emerge test, crop safety; conditions: post-emerge, crop damage rating 0-100 at 14 days after application
In short: (§3)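 Applied at 15–1000 g ai/ha from acetone in 187 l/ha spray volume. Post-emergence applications included 0.25% v/v non-ionic surfactant and reached plants sown 8–21 days before. Pre-emergence applications were incorporated by surface watering. Efficacy or crop damage was rated on a 0–100 scale after 14 days.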

[12] = test system: upland rice (Oryza sp., var. Tebonnet, RICE); test: Post-emerge test, crop safety; conditions: post-emerge, crop damage rating 0-100 at 14 days after application
In short: as §3

[13] = test system: field corn (Zea mays L., var. Dekalb 535, CORN); test: Pre-emerge test, crop safety; conditions: crop damage, pre-emerge, phytotoxicity rating 0-100 at 14 days after application
In short: as §2

[14] = test system: upland rice (Oryza sp., var. Tebonnet, RICE); test: Pre-emerge test, crop safety; conditions: crop damage, pre-emerge, phytotoxicity rating 0-100 at 14 days after application
In short: as §2

[15] = test system: velvetleaf (Abutilon theophrasti, ABUTH); test: Pre-emerge test, greenhouse herbicide activity screening; conditions: pre-emerge, phytotoxicity rating 0-100 at 14 days after application
In short: as §3

[16] = test system: sicklepod (Cassia obtusifolia, CASOB); test: as above; conditions: pre-emerge, phytotoxicity rating 0-100 at 14 days after application
In short: as §3

[17] = test system: lambsquarters (Chenopodium album, CHEAL); test: as above; conditions: pre-emerge, phytotoxicity rating 0-100 at 14 days after application
In short: as §3

[18] = test system: large crabgrass (Digitaria sanguinalis, DIGSA); test: as above; conditions: pre-emerge, phytotoxicity rating 0-100 at 14 days after application
In short: as §3

[19] = test system: johnsongrass (Sorghum halepense, SORHA); test: as above; conditions: pre-emerge, phytotoxicity rating 0-100 at 14 days after application
In short: as §3

[20] = test system: barnyardgrass (Echinochloa crus-galli, ECHCG); test: as above; conditions: pre-emerge, phytotoxicity rating 0-100 at 14 days after application
In short: as §3

[21] = test system: ivyleaf morningglory (Ipomoea hederacea, IPOHE); test: as above; conditions: pre-emerge, phytotoxicity rating 0-100 at 14 days after application
In short: as §3

[22] = test system: green foxtail (Setaria viridis, SETVI); test: as above; conditions: pre-emerge, phytotoxicity rating 0-100 at 14 days after application
In short: as §3

## Cc1c(Cl)cc(F)c(-n2c(=O)cc(C(F)(F)F)n(C)c2=O)c1NC(=O)OCc1ccc([N+](=O)[O-])cc1 [4-64]
[1]; 63 g ai/ha
  Post-emerge Herbicidal Activity ABUTH: 100
[1]; 250 g ai/ha
  Post-emerge Herbicidal Activity ABUTH: 100
[2]; 63 g ai/ha
  Post-emerge Herbicidal Activity CASOB: 60
[2]; 250 g ai/ha
  Post-emerge Herbicidal Activity CASOB: 100
[3]; 63 g ai/ha
  Post-emerge Herbicidal Activity CHEAL: 100
[3]; 250 g ai/ha
  Post-emerge Herbicidal Activity CHEAL: 100
[4]; 63 g ai/ha
  Post-emerge Herbicidal Activity DIGSA: 10
[4]; 250 g ai/ha
  Post-emerge Herbicidal Activity DIGSA: 30
[5]; 63 g ai/ha
  Post-emerge Herbicidal Activity SORHA: 10
[5]; 250 g ai/ha
  Post-emerge Herbicidal Activity SORHA: 30
[6]; 63 g ai/ha
  Post-emerge Herbicidal Activity AMARE: 100
[6]; 250 g ai/ha
  Post-emerge Herbicidal Activity AMARE: 100
[7]; 63 g ai/ha
  Post-emerge Herbicidal Activity ECHCG: 20
[7]; 250 g ai/ha
  Post-emerge Herbicidal Activity ECHCG: 30
[8]; 63 g ai/ha
  Post-emerge Herbicidal Activity IPOHE: 100
[8]; 250 g ai/ha
  Post-emerge Herbicidal Activity IPOHE: 100
[9]; 63 g ai/ha
  Post-emerge Herbicidal Activity SETVI: 50
[9]; 250 g ai/ha
  Post-emerge Herbicidal Activity SETVI: 80
[10]; rate 63 g ai/ha
  Pre-emerge Herbicidal Activity AMARE: 100
[10]; rate 250 g ai/ha
  Pre-emerge Herbicidal Activity AMARE: 100
[11]; 63 g ai/ha
  Post-emerge Herbicidal Activity CORN: 30
[11]; 250 g ai/ha
  Post-emerge Herbicidal Activity CORN: 40
[12]; 63 g ai/ha
  Post-emerge Herbicidal Activity RICE: 15
[12]; 250 g ai/ha
  Post-emerge Herbicidal Activity RICE: 50
[13]; rate 63 g ai/ha
  Pre-emerge Herbicidal Activity CORN: 0
[13]; rate 250 g ai/ha
  Pre-emerge Herbicidal Activity CORN: 45
[14]; rate 63 g ai/ha
  Pre-emerge Herbicidal Activity RICE: 30
[14]; rate 250 g ai/ha
  Pre-emerge Herbicidal Activity RICE: 80
[15]; rate 63 g ai/ha
  Pre-emerge Herbicidal Activity ABUTH: 100
[15]; rate 250 g ai/ha
  Pre-emerge Herbicidal Activity ABUTH: 100
[16]; rate 63 g ai/ha
  Pre-emerge Herbicidal Activity CASOB: 20
[16]; rate 250 g ai/ha
  Pre-emerge Herbicidal Activity CASOB: 90
[17]; rate 63 g ai/ha
  Pre-emerge Herbicidal Activity CHEAL: 100
[17]; rate 250 g ai/ha
  Pre-emerge Herbicidal Activity CHEAL: 100
[18]; rate 63 g ai/ha
  Pre-emerge Herbicidal Activity DIGSA: 100
[18]; rate 250 g ai/ha
  Pre-emerge Herbicidal Activity DIGSA: 100
[19]; rate 63 g ai/ha
  Pre-emerge Herbicidal Activity SORHA: 40
[19]; rate 250 g ai/ha
  Pre-emerge Herbicidal Activity SORHA: 80
[20]; rate 63 g ai/ha
  Pre-emerge Herbicidal Activity ECHCG: 30
[20]; rate 250 g ai/ha
  Pre-emerge Herbicidal Activity ECHCG: 70
[21]; rate 63 g ai/ha
  Pre-emerge Herbicidal Activity IPOHE: 40
[21]; rate 250 g ai/ha
  Pre-emerge Herbicidal Activity IPOHE: 70
[22]; rate 63 g ai/ha
  Pre-emerge Herbicidal Activity SETVI: 100
[22]; rate 250 g ai/ha
  Pre-emerge Herbicidal Activity SETVI: 100

## COc1c(Cl)cc(F)c(N2C(=O)C3=C(CCCC3)C2=O)c1N [8-7]
[1]; 63 g ai/ha
  Post-emerge Herbicidal Activity ABUTH: 95
[1]; 250 g ai/ha
  Post-emerge Herbicidal Activity ABUTH: 100
[2]; 63 g ai/ha
  Post-emerge Herbicidal Activity CASOB: 0
[2]; 250 g ai/ha
  Post-emerge Herbicidal Activity CASOB: 90
[3]; 63 g ai/ha
  Post-emerge Herbicidal Activity CHEAL: 95
[3]; 250 g ai/ha
  Post-emerge Herbicidal Activity CHEAL: 99
[4]; 63 g ai/ha
  Post-emerge Herbicidal Activity DIGSA: 0
[4]; 250 g ai/ha
  Post-emerge Herbicidal Activity DIGSA: 10
[5]; 63 g ai/ha
  Post-emerge Herbicidal Activity SORHA: 0
[5]; 250 g ai/ha
  Post-emerge Herbicidal Activity SORHA: 0
[6]; 63 g ai/ha
  Post-emerge Herbicidal Activity AMARE: 95
[6]; 250 g ai/ha
  Post-emerge Herbicidal Activity AMARE: 100
[7]; 63 g ai/ha
  Post-emerge Herbicidal Activity ECHCG: 0
[7]; 250 g ai/ha
  Post-emerge Herbicidal Activity ECHCG: 20
[8]; 63 g ai/ha
  Post-emerge Herbicidal Activity IPOHE: 10
[8]; 250 g ai/ha
  Post-emerge Herbicidal Activity IPOHE: 70
[9]; 63 g ai/ha
  Post-emerge Herbicidal Activity SETVI: 0
[9]; 250 g ai/ha
  Post-emerge Herbicidal Activity SETVI: 90
[10]; rate 63 g ai/ha
  Pre-emerge Herbicidal Activity AMARE: 99
[10]; rate 250 g ai/ha
  Pre-emerge Herbicidal Activity AMARE: 100
[11]; 63 g ai/ha
  Post-emerge Herbicidal Activity CORN: 10
[11]; 250 g ai/ha
  Post-emerge Herbicidal Activity CORN: 10
[12]; 63 g ai/ha
  Post-emerge Herbicidal Activity RICE: 0
[12]; 250 g ai/ha
  Post-emerge Herbicidal Activity RICE: 90
[13]; rate 63 g ai/ha
  Pre-emerge Herbicidal Activity CORN: 0
[13]; rate 250 g ai/ha
  Pre-emerge Herbicidal Activity CORN: 10
[14]; rate 63 g ai/ha
  Pre-emerge Herbicidal Activity RICE: 0
[14]; rate 250 g ai/ha
  Pre-emerge Herbicidal Activity RICE: 0
[15]; rate 63 g ai/ha
  Pre-emerge Herbicidal Activity ABUTH: 100
[15]; rate 250 g ai/ha
  Pre-emerge Herbicidal Activity ABUTH: 100
[16]; rate 63 g ai/ha
  Pre-emerge Herbicidal Activity CASOB: 0
[16]; rate 250 g ai/ha
  Pre-emerge Herbicidal Activity CASOB: 0
[17]; rate 63 g ai/ha
  Pre-emerge Herbicidal Activity CHEAL: 95
[17]; rate 250 g ai/ha
  Pre-emerge Herbicidal Activity CHEAL: 100
[18]; rate 63 g ai/ha
  Pre-emerge Herbicidal Activity DIGSA: 50
[18]; rate 250 g ai/ha
  Pre-emerge Herbicidal Activity DIGSA: 80
[19]; rate 63 g ai/ha
  Pre-emerge Herbicidal Activity SORHA: 10
[19]; rate 250 g ai/ha
  Pre-emerge Herbicidal Activity SORHA: 70
[20]; rate 63 g ai/ha
  Pre-emerge Herbicidal Activity ECHCG: 0
[20]; rate 250 g ai/ha
  Pre-emerge Herbicidal Activity ECHCG: 70
[21]; rate 63 g ai/ha
  Pre-emerge Herbicidal Activity IPOHE: 0
[21]; rate 250 g ai/ha
  Pre-emerge Herbicidal Activity IPOHE: 0
[22]; rate 63 g ai/ha
  Pre-emerge Herbicidal Activity SETVI: 95
[22]; rate 250 g ai/ha
  Pre-emerge Herbicidal Activity SETVI: 99
